Format in all cases: functional
The target of assay [1] is T1, Serine/threonine-protein kinase PLK4 (Homo sapiens, UniProt O00444).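 Further: PLK4 measured as one member of a kinome-wide kinase profiling panel.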
T1 sequence (O00444 whole entry): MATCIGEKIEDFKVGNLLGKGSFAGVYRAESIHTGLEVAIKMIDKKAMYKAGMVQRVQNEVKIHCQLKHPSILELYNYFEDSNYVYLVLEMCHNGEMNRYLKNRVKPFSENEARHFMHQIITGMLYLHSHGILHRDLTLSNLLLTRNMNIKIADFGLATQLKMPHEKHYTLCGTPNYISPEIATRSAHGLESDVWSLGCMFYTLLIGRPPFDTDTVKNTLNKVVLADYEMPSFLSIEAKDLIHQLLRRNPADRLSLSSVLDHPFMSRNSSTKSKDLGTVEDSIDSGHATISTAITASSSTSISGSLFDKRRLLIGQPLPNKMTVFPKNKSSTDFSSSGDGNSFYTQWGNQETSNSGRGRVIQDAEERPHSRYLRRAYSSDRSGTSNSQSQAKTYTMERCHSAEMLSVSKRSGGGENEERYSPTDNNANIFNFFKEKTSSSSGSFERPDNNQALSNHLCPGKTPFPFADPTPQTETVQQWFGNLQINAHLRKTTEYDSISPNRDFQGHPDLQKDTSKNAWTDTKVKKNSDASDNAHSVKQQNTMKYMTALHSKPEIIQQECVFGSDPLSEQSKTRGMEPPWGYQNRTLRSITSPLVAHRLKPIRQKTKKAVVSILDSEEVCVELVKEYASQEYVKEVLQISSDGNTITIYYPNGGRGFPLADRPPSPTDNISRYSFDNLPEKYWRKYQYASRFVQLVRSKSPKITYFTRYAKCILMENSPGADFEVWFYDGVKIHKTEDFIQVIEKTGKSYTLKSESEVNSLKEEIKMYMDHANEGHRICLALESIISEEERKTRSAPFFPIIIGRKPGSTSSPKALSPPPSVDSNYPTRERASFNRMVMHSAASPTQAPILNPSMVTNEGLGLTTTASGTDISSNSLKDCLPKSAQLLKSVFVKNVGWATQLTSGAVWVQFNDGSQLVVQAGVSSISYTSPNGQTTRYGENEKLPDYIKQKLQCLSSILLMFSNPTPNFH

Assay [2] deals with T2, Tyrosine-protein kinase receptor TYRO3 (Homo sapiens, UniProt Q06418).
T2 sequence (Q06418 whole entry): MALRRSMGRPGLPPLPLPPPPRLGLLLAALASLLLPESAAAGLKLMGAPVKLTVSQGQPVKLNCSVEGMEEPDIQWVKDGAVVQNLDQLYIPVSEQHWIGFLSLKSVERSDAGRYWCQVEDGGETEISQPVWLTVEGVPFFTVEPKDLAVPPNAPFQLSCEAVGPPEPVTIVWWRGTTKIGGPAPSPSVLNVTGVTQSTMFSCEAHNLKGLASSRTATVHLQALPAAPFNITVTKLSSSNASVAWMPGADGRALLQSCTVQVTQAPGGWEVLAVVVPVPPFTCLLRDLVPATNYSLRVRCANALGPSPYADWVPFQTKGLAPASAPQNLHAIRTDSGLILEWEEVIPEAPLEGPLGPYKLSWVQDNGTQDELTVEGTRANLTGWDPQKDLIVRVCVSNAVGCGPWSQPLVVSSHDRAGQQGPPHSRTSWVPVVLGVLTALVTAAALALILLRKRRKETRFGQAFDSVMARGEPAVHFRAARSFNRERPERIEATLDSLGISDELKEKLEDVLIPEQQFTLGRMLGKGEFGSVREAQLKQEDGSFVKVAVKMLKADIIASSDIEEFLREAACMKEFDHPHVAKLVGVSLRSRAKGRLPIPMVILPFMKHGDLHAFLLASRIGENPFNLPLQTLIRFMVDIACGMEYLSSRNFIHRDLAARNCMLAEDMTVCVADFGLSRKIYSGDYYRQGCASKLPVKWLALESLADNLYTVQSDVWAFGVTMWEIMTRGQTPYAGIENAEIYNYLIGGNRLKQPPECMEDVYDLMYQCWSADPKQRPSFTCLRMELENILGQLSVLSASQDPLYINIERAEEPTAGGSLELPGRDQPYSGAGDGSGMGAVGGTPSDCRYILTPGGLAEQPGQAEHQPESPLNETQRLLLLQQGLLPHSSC

Assay [3] concerns the target T3, Tyrosine-protein kinase ITK/TSK (Homo sapiens, UniProt Q08881).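 Further: affinity for ITK measured as one member of a broad kinase panel profiling binding across the kinome.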
T3 sequence (Q08881 whole entry): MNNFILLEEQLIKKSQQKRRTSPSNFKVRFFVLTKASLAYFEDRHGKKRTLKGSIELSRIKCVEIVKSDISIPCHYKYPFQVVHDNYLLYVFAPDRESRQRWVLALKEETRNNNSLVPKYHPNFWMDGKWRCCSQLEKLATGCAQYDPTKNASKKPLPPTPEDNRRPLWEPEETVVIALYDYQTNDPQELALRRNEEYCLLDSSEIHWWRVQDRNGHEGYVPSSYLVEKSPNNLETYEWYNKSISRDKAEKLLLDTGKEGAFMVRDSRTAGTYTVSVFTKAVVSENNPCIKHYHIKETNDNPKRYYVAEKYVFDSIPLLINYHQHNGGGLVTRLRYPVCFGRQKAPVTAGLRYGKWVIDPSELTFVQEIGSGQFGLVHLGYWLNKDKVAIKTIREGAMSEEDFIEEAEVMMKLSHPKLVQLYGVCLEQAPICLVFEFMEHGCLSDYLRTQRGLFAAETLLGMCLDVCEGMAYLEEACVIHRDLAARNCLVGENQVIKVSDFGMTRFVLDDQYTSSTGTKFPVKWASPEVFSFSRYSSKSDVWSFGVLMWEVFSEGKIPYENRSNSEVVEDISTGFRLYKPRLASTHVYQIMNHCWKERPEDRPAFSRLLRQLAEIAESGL

In assay [4] the target is MAP/microtubule affinity-regulating kinase 3 (Homo sapiens, UniProt P27448).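 Further: MARK3 affinity measured as one member of a kinome panel.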
Sequence of MAP/microtubule affinity-regulating kinase 3 (P27448 whole entry, canonical isoform): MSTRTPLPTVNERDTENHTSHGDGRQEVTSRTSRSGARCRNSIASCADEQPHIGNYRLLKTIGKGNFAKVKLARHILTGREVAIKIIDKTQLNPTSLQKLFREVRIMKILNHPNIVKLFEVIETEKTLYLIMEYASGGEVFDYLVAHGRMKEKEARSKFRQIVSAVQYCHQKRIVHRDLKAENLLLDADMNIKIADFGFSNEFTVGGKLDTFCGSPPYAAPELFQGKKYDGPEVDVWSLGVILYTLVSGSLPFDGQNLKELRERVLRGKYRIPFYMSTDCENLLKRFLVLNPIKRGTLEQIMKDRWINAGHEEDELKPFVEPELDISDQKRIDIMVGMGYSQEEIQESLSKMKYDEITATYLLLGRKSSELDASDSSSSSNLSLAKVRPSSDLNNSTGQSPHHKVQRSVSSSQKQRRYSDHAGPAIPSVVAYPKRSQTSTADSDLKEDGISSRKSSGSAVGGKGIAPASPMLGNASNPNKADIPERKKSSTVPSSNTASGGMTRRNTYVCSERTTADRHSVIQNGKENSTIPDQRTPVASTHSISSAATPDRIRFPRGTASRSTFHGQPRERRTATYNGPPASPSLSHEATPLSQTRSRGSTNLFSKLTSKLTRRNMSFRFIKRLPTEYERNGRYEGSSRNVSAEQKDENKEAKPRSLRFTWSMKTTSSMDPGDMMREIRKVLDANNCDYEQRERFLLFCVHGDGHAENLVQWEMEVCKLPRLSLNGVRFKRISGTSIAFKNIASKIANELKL
The target in assay [5] is Casein kinase I isoform delta (Homo sapiens, UniProt P48730).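 Further: measured as one member (CSNK1D) of a kinome panel.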
Sequence of Casein kinase I isoform delta (P48730 whole entry, canonical isoform): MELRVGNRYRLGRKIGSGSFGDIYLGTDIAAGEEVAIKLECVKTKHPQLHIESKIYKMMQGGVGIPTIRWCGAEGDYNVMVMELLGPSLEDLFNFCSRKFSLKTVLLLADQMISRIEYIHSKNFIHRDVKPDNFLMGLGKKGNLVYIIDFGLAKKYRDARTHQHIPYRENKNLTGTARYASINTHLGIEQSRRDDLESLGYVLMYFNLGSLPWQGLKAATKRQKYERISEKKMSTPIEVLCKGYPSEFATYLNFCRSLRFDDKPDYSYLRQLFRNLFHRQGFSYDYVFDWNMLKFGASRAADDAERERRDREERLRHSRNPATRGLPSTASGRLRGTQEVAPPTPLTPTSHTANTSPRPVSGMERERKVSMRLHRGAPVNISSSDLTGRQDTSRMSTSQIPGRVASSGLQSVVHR
For the next assay, the target named is Aurora kinase B (Homo sapiens, UniProt Q96GD4).
Sequence of Aurora kinase B (Q96GD4 whole entry): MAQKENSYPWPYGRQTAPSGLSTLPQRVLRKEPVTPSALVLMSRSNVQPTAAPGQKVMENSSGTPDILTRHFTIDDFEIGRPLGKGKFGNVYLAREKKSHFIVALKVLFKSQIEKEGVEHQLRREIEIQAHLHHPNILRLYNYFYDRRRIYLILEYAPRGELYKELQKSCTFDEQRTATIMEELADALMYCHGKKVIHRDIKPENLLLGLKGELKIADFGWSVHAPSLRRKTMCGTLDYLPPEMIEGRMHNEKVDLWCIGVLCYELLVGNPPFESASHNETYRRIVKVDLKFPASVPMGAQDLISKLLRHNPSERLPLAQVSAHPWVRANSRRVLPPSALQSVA
Assay [6] addresses cAMP-dependent protein kinase catalytic subunit alpha (Homo sapiens, UniProt P17612).
For assay [7], the target named is Dual specificity tyrosine-phosphorylation-regulated kinase 1A (Homo sapiens, UniProt Q13627).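 Further: measured against DYRK1A as one member of a broad kinome profiling panel.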

The text below walks through data of ChEMBL document CHEMBL1201862, “PubChem BioAssay data set” (2004).

Activity calls are given as the source filed them.

Turning to `NC(=O)c1cc(-c2ccnc(N)n2)[nH]c1-c1ccc(Cl)cc1Cl`, the Ki was 501 nM (active) in assay [1]; > 2000 nM (inactive) in assay [2]; > 1580 nM (inactive) in assay [3]; 501 nM (active) in assay [4]; 15.8 nM (active) in assay [5]; 631 nM (active) at Aurora kinase B. In addition, the Ki was 398 nM (active) in assay [6] and 0.794 nM (active) in assay [7]. In addition, the pKi was 6.3 in assay [1]; 6.3 in assay [4]; 7.8 in assay [5]; 6.2 on Aurora kinase B; 6.4 in assay [6]; 9.1 in assay [7].
`NC(COc1cncc(-c2ccc3c(c2)C(=Cc2ccco2)C(=O)N3)c1)Cc1c[nH]c2ccccc12` (stereo not given): the Ki was 200 nM (active) in assay [1]; > 2000 nM (inactive) in assay [2]; 1260 nM (active) in assay [3]; 39.8 nM (active) in assay [4]; 398 nM (active) in assay [5]; 200 nM (active) on Aurora kinase B. Besides, the Ki in assay [6] was 12.6 nM (active); in assay [7] it was 2.51 nM (active).
As for `Cc1ccc(-n2nc(C(C)(C)C)cc2NC(=O)Nc2ccc(OCCN3CCOCC3)c3ccccc23)cc1` [DORAMAPIMOD], the Ki in assay [1] was > 3980 nM (inactive); in assay [2] it was 2000 nM (active); in assay [3] it was > 1580 nM (inactive); in assay [4], > 5010 nM (inactive); in assay [5] it was > 7940 nM (inactive); on Aurora kinase B, > 5010 nM (inactive). The Ki in assay [6] and in assay [7] was > 2000 nM (inactive) throughout.

One may read the Ki as a dissociation constant, usually derived from enzyme kinetics or from competition with a known ligand. By pKi is commonly meant the Ki on a negative log10 scale, so that one unit is a factor of ten. Low readings indicate a large Ki, high ones a small Ki.
